Assay results as given in ChEMBL document CHEMBL1201862, “PubChem BioAssay data set” (2004).
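Cells were grown in 96-well plates and exposed to each compound for 48 hours at five concentrations; endpoints were interpolated linearly between bracketing concentrations, or set to the highest concentration if not reached. GI50: concentration for 50% inhibition of growth.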 Active and inactive are the calls of the source. Rule as the data show it: active = GI50 up to about 1.1 µM and inactive = higher.

Tests used:
Assay in all cases: DTP human tumour cell line panel, 48 h
[1] = test system: U-251
[2] = test system: M14
[3] = test system: NCI-H23
[4] = test system: HL-60
[5] = test system: BT-549
[6] = test system: OVCAR-4
[7] = test system: IGROV-1
[8] = test system: SR
[9] = test system: SNB-19
[10] = test system: UACC-62
[11] = test system: 786-0
[12] = test system: SF-295
[13] = test system: MDA-N
[14] = test system: UO-31
[15] = test system: MOLT-4
[16] = test system: NCI-H460
[17] = test system: TK-10
[18] = test system: CCRF-CEM
[19] = test system: SN12C
[20] = test system: DU-145
[21] = test system: A549
[22] = test system: SF-539
[23] = test system: SW-620
[24] = test system: OVCAR-8
[25] = test system: ACHN
[26] = test system: A498
[27] = test system: OVCAR-5
[28] = test system: SNB-75
[29] = test system: MDA-MB-435
[30] = test system: SF-268
[31] = test system: NCI-H226
[32] = test system: T47D
[33] = test system: KM12
[34] = test system: EKVX
[35] = test system: OVCAR-3
[36] = test system: SK-MEL-5
[37] = test system: SK-OV-3
[38] = test system: LOX IMVI
[39] = test system: MCF7
[40] = test system: HT-29
[41] = test system: PC-3
[42] = test system: SK-MEL-28
[43] = test system: UACC-257
[44] = test system: COLO 205
[45] = test system: HOP-62
[46] = test system: HCT-116
[47] = test system: K562
[48] = test system: HCT-15
[49] = test system: RPMI-8226
[50] = test system: NCI/ADR-RES
[51] = test system: CAKI-1
[52] = test system: SK-MEL-2
[53] = test system: Hs-578T
[54] = test system: MDA-MB-231
[55] = test system: NCI-H522
[56] = test system: Malme-3M
[57] = test system: RXF 393
[58] = test system: HOP-92
[59] = test system: HCC 2998

## CC(O)C1OC(O)C2OC(C)(C)OC12 (stereo unspecified)
[1]
  GI50: > 100 µM (inactive)
[2]
  GI50: > 100 µM (inactive)
[3]
  GI50: > 100 µM (inactive)
[4]
  GI50: > 100 µM (inactive)
[5]
  GI50: > 100 µM (inactive)
[6]
  GI50: > 100 µM (inactive)
[7]
  GI50: > 100 µM (inactive)
[8]
  GI50: > 100 µM (inactive)
[9]
  GI50: > 100 µM (inactive)
[10]
  GI50: > 100 µM (inactive)
[11]
  GI50: > 100 µM (inactive)
[12]
  GI50: > 100 µM (inactive)
[13]
  GI50: > 100 µM (inactive)
[14]
  GI50: > 100 µM (inactive)
[15]
  GI50: > 100 µM (inactive)
[16]
  GI50: > 100 µM (inactive)
[17]
  GI50: > 100 µM (inactive)
[18]
  GI50: > 100 µM (inactive)
[19]
  GI50: > 100 µM (inactive)
[20]
  GI50: > 100 µM (inactive)
[21]
  GI50: > 100 µM (inactive)
[22]
  GI50: > 100 µM (inactive)
[23]
  GI50: > 100 µM (inactive)
[24]
  GI50: > 100 µM (inactive)
[25]
  GI50: > 100 µM (inactive)
[26]
  GI50: > 100 µM (inactive)
[27]
  GI50: > 100 µM (inactive)
[28]
  GI50: > 100 µM (inactive)
[29]
  GI50: > 100 µM (inactive)
[30]
  GI50: > 100 µM (inactive)
[31]
  GI50: > 100 µM (inactive)
[32]
  GI50: > 100 µM (inactive)
[33]
  GI50: > 100 µM (inactive)
[34]
  GI50: > 100 µM (inactive)
[35]
  GI50: > 100 µM (inactive)
[36]
  GI50: > 100 µM (inactive)
[37]
  GI50: > 100 µM (inactive)
[38]
  GI50: > 100 µM (inactive)
[39]
  GI50: > 100 µM (inactive)
[40]
  GI50: > 100 µM (inactive)
[41]
  GI50: > 100 µM (inactive)
[42]
  GI50: > 100 µM (inactive)
[43]
  GI50: > 100 µM (inactive)
[44]
  GI50: > 100 µM (inactive)
[45]
  GI50: > 100 µM (inactive)
[46]
  GI50: > 100 µM (inactive)
[47]
  GI50: > 100 µM (inactive)
[48]
  GI50: > 100 µM
[49]
  GI50: > 100 µM (inactive)
[50]
  GI50: > 100 µM (inactive)
[51]
  GI50: > 100 µM (inactive)
[52]
  GI50: > 100 µM (inactive)
[53]
  GI50: > 100 µM (inactive)
[54]
  GI50: > 100 µM (inactive)
[55]
  GI50: > 100 µM (inactive)

## CN1C(=S)C(c2ccccc2)Sc2ccccc21 (stereo unspecified)
[1]
  GI50: > 100 µM (inactive)
[2]
  GI50: > 100 µM (inactive)
[3]
  GI50: 55.7 µM (inactive)
[4]
  GI50: 87.5 µM (inactive)
[5]
  GI50: 42.7 µM (inactive)
[6]
  GI50: > 100 µM (inactive)
[7]
  GI50: > 100 µM (inactive)
[8]
  GI50: 64.4 µM (inactive)
[9]
  GI50: > 100 µM (inactive)
[10]
  GI50: > 100 µM (inactive)
[56]
  GI50: 97.7 µM (inactive)
[11]
  GI50: > 100 µM (inactive)
[12]
  GI50: 17.4 µM (inactive)
[13]
  GI50: 77.8 µM (inactive)
[14]
  GI50: 35.6 µM (inactive)
[57]
  GI50: 50.2 µM (inactive)
[15]
  GI50: 7.29 µM (inactive)
[16]
  GI50: 27.8 µM (inactive)
[17]
  GI50: 85.9 µM (inactive)
[18]
  GI50: 8.77 µM (inactive)
[19]
  GI50: > 100 µM (inactive)
[20]
  GI50: > 100 µM (inactive)
[21]
  GI50: 84.3 µM (inactive)
[24]
  GI50: 43.3 µM (inactive)
[25]
  GI50: > 100 µM (inactive)
[27]
  GI50: 82 µM (inactive)
[28]
  GI50: 35.7 µM (inactive)
[29]
  GI50: 57 µM (inactive)
[30]
  GI50: > 100 µM (inactive)
[31]
  GI50: 90.6 µM (inactive)
[32]
  GI50: 78.5 µM (inactive)
[33]
  GI50: 63.7 µM (inactive)
[34]
  GI50: 14 µM (inactive)
[35]
  GI50: 48.2 µM (inactive)
[36]
  GI50: 34.8 µM (inactive)
[37]
  GI50: 42.8 µM (inactive)
[38]
  GI50: 77.1 µM (inactive)
[39]
  GI50: 48.8 µM (inactive)
[40]
  GI50: > 10 µM (inactive)
[41]
  GI50: 17.6 µM (inactive)
[42]
  GI50: > 100 µM (inactive)
[43]
  GI50: 30.8 µM (inactive)
[44]
  GI50: 47.4 µM (inactive)
[45]
  GI50: > 100 µM (inactive)
[46]
  GI50: 38.8 µM (inactive)
[47]
  GI50: 20.7 µM (inactive)
[48]
  GI50: 52.1 µM
[49]
  GI50: > 100 µM (inactive)
[50]
  GI50: > 100 µM (inactive)
[51]
  GI50: > 100 µM (inactive)
[53]
  GI50: 35.6 µM (inactive)
[54]
  GI50: > 100 µM (inactive)
[55]
  GI50: 54.3 µM (inactive)

## O=c1c(C(c2ccc(/C=C/c3ccccc3)cc2)c2c(O)oc3cc(O)ccc3c2=O)c(O)oc2cc(O)ccc12
[1]
  GI50: 2.88 µM (inactive)
[2]
  GI50: > 100 µM (inactive)
[3]
  GI50: > 100 µM (inactive)
[4]
  GI50: 27.5 µM (inactive)
[5]
  GI50: 98.9 µM (inactive)
[6]
  GI50: > 100 µM (inactive)
[58]
  GI50: 75.2 µM (inactive)
[7]
  GI50: > 100 µM (inactive)
[9]
  GI50: > 100 µM (inactive)
[10]
  GI50: > 100 µM (inactive)
[56]
  GI50: > 100 µM (inactive)
[11]
  GI50: > 100 µM (inactive)
[12]
  GI50: > 100 µM (inactive)
[13]
  GI50: 53.5 µM (inactive)
[14]
  GI50: 56.9 µM (inactive)
[57]
  GI50: > 100 µM (inactive)
[15]
  GI50: 20.9 µM (inactive)
[16]
  GI50: > 100 µM (inactive)
[17]
  GI50: > 100 µM (inactive)
[18]
  GI50: 37.6 µM (inactive)
[19]
  GI50: 48.4 µM (inactive)
[20]
  GI50: > 100 µM (inactive)
[21]
  GI50: > 100 µM (inactive)
[22]
  GI50: > 100 µM (inactive)
[23]
  GI50: 91.8 µM (inactive)
[24]
  GI50: 98.6 µM (inactive)
[25]
  GI50: > 100 µM (inactive)
[26]
  GI50: > 100 µM (inactive)
[27]
  GI50: > 100 µM (inactive)
[28]
  GI50: 29 µM (inactive)
[29]
  GI50: 82.2 µM (inactive)
[30]
  GI50: 33.7 µM (inactive)
[31]
  GI50: > 100 µM (inactive)
[32]
  GI50: 52.6 µM (inactive)
[33]
  GI50: > 100 µM (inactive)
[34]
  GI50: > 100 µM (inactive)
[35]
  GI50: > 100 µM (inactive)
[36]
  GI50: 21.8 µM (inactive)
[37]
  GI50: > 100 µM (inactive)
[38]
  GI50: 36.7 µM (inactive)
[39]
  GI50: 49.9 µM (inactive)
[59]
  GI50: > 100 µM (inactive)
[40]
  GI50: > 100 µM (inactive)
[41]
  GI50: > 100 µM (inactive)
[42]
  GI50: 11.3 µM (inactive)
[43]
  GI50: > 100 µM (inactive)
[44]
  GI50: > 100 µM (inactive)
[45]
  GI50: > 100 µM (inactive)
[46]
  GI50: > 100 µM (inactive)
[47]
  GI50: 91.4 µM (inactive)
[48]
  GI50: > 100 µM
[49]
  GI50: 39.6 µM (inactive)
[50]
  GI50: > 100 µM (inactive)
[51]
  GI50: 55.3 µM (inactive)
[52]
  GI50: > 100 µM (inactive)
[53]
  GI50: 56.6 µM (inactive)
[54]
  GI50: > 100 µM (inactive)
[55]
  GI50: 52 µM (inactive)
